ChEMBL document CHEMBL1212907, “Activity of physalin F in a collagen-induced arthritis model” (J Nat Prod, 2010)
The source made the active and inactive calls. The calls are words filed in the database; no cut-off is given here.

How the values were obtained:
Format in all cases: functional, organism-based
Mus musculus [1] = assay: Immunomodulatory activity in ip dosed mouse lung assessed as reduction of eosinophils in bronchoalveolar lavage fluid
Mus musculus [2] = assay: Antiinflammatory activity against collagen-induced arthritis in po dosed mouse assessed as inhibition of paw edema at 20 mg/kg, po after 20 days; parameters: dose 20 mg/kg
Mus musculus [3] = assay: Antiinflammatory activity against collagen-induced arthritis in po dosed mouse assessed as synovial cell hyperplasia after 20 days
Mus musculus [4] = assay: Immunomodulatory activity in mouse assessed as inhibition of allergic airway inflammation at 60 mg/kg, ip; parameters: dose 60 mg/kg
Mus musculus [5] = assay: Immunomodulatory activity in ip dosed mouse lung assessed as reduction in inhibition of ovalbumin-induced intense cell filtration
Mus musculus [6] = assay: Immunomodulatory activity in ip dosed mouse lung assessed as reduction in modulation of mucus production at 60 mg/kg; parameters: dose 60 mg/kg
Mus musculus [7] = species on record: Mus musculus; assay: Immunomodulatory activity in mouse assessed as reduction in ovalbumin-induced TH2 cytokine secretion by ELISA

SMILES	Activity (Mus musculus [1])	inhibition (Mus musculus [2])	Activity (Mus musculus [3])	inhibition (Mus musculus [4])	inhibition (Mus musculus [5])	Activity (Mus musculus [6])	Activity (Mus musculus [7])
C[C@@H]1C[C@H]2[C@@H]3CCC4=CC(=O)C=C[C@]4(C)[C@@]3(F)[C@@H](O)C[C@]2(C)[C@@]1(O)C(=O)CO	Active	–	–	–	–	–	–
C[C@@]12C[C@H]3OC(=O)[C@@H]1CO[C@]14O[C@]5([C@H]2C1=O)[C@@](O)(CC[C@H]1[C@H]4C[C@H]2O[C@]24CC=CC(=O)[C@]14C)C(=O)O[C@@]35C	inactive	Active	Active	inactive	Active	inactive	inactive
